{"source": "patent US5661167A", "about": "“Prolyl endopeptidase inhibitors” (Merrell Pharmaceuticals Inc., priority 1996, dated 1997)", "data": [{"molecular_target": "T1, Prolyl endopeptidase (Bos taurus, UniProt Q9XTA2)", "T1 construct": "Prolyl endopeptidase was partially purified from bovine brain; from tissue; host or cells: bovine brain", "T1 sequence (Q9XTA2 1-710)": "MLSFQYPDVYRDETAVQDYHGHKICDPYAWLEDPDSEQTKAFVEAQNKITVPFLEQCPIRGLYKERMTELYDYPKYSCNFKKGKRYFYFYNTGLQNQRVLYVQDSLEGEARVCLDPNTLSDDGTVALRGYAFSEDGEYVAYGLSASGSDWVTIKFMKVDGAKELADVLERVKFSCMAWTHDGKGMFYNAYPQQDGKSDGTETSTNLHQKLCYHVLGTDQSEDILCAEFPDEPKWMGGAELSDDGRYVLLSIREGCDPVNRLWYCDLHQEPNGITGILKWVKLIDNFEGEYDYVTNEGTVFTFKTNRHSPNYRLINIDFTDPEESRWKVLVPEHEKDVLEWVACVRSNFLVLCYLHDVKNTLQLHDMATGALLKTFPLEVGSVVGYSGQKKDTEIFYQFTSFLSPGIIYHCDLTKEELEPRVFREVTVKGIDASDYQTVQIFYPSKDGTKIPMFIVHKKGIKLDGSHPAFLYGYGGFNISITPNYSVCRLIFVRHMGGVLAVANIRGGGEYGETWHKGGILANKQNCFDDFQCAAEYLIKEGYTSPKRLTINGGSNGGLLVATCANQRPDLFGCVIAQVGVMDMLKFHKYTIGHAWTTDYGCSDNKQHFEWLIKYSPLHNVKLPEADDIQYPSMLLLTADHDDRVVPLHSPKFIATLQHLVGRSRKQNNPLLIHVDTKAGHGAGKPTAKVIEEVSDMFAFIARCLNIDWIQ", "test": "Prolyl endopeptidase enzyme inhibition assay (CBz-Gly-Pro-p-nitroanilide substrate, absorbance at 410 nm)", "format": "biochemical", "conditions": "prolyl endopeptidase partially purified from bovine brain, buffer A (50 mM HEPES pH 7.4, 1 mM EDTA, 1 mM DTT), 37° C., [S]=50 μM, KM 11 μM, read-out: ENZYME INHIBITION (enzyme inhibition constant, Ki)", "procedure": "Prolyl endopeptidase was partially purified from bovine brain essentially as described by Yoshimoto et al. (Biochem., 94, 1179 (1983)) except that 50 mM HEPES, pH 7.4, was used instead of Tris buffer. This enzyme preparation is suitable for routine inhibition measurements; however, the enzyme may be further purified as described below. The state of purity of the enzyme is not expected to effect the measured Ki. The pellet from the 50%-80% ammonium sulfate cut is redissolved in the homogenization buffer and desalted by passage through a Pharmacia Mono Q column (0.5×5 cm) at 1 ml/min and the column is washed with 5 ml of buffer A to buffer B (total 20 ml; buffer A=50 mM HEPES, pH 7.4, 1 mM EDTA and 1 mM DTT; buffer B=buffer A+0.5M NaCl). Enzyme activity elutes at about [NaCl]=0.25M.\nThe enzyme is assayed in buffer A (3.0 ml) at 37° C. containing 20 μM substrate (CBz-Gly-Pro-p-nitroanilide). The increase in absorbance at 410 nm is monitored (410 nm =8.4 mM^-1 cm^-1). Inhibitor stock solutions are made in DMSO. To characterize reversible competitive inhibitors, the initial rates in the presence of three inhibitor concentrations are measured using [S]=50 μM (KM for the substrate is 11 μM). If slow binding is observed, the final equilibrium rates are used.\nThe Ki for a competitive inhibitor is calculated using known formulas: vo /vi =(1+[I]/Ki, app) and Ki =Ki, app/(1+[S]/KM), where vo is the initial rate in the absence of inhibitor, vi is the initial rate in the presence of inhibitor at the concentration [I], and [S] is the substrate concentration. If \"slow binding\" is observed (i.e. if the approach to the binding equilibrium is slow), the final steady-state rate rather than the initial rate is taken as vi.\nEnzyme inhibition constants were found using the described methods for various compounds of formula 1.", "units": {"Ki": "nM"}, "values": [{"smiles": "O=C(OCc1ccccc1)N1CCCC1C(=O)N1CCCC1C(=O)C(F)(F)C(F)(F)F", "note": "(stereo not drawn) [EXAMPLE I, 2-[[2-(2,2,3,3,3-pentafluoro-1-oxopropyl)-1-pyrrolidinyl]carbonyl]-1-pyrrolidinecarboxylic acid, phenylmethyl ester]", "Ki": 1.4}, {"smiles": "O=C(OCc1ccccc1)N1CSCC1C(=O)N1CCCC1C(=O)C(F)(F)C(F)(F)F", "note": "(stereo not drawn) [EXAMPLE II, 4-[[2-(2,2,3,3,3-pentafluoro-1-oxopropyl)-1-pyrrolidinyl]carbonyl]-3-thiazolidinecarboxylic acid, phenylmethyl ester]", "Ki": 1}, {"smiles": "CC(C)(C)OC(=O)N1CSCC1C(=O)N1CSCC1C(=O)C(F)(F)C(F)(F)F", "note": "(stereo not drawn) [EXAMPLE IV, 4-[[4-(2,2,3,3,3-pentafluoro-1-oxopropyl)-3-thiazolidinyl]carbonyl]-3-thiazolidinecarboxylic acid, 1,1-dimethylethyl ester]", "Ki": 1}]}]}
